# Measured values taken from ChEMBL document CHEMBL1152479, “Synthesis and in vitro antitumor activities of novel 4-anilinoquinazoline derivatives” (Eur J Med Chem, 2009).
# pIC50: −log10 of the molar value.
# Tested on: A431 (human)
# Experiment: cells
# Settings: A431, 72 h
row,Compound,pIC50
1,C#Cc1cccc(Nc2ncnc3cc(OC)c(OCCCn4c(CCCC)nc(Cl)c4C=O)cc23)c1,5.00
2,COc1ccc(Nc2ncnc3cc(OC)c(OCCCSc4nc5ccccc5s4)cc23)cc1,4.85
3,CCc1cc(Br)ccc1Nc1ncnc2cc(OC)c(OCCCSc3nc4ccccc4o3)cc12,4.76
4,COc1cc2ncnc(Nc3ccc(F)c(Cl)c3)c2cc1OCCCSc1nc2ccccc2o1,5.39
5,COc1cc2ncnc(Nc3cccc(C(F)(F)F)c3)c2cc1OCCCSc1nc2ccccc2o1,5.39
6,COc1cc2ncnc(Nc3ccc(OC(F)(F)F)cc3)c2cc1OCCCSc1nc2ccccc2o1,5.04
7,CCCCc1nc(Cl)c(C=O)n1CCCOc1cc2c(Nc3ccc(Br)cc3CC)ncnc2cc1OC,5.18
8,CCCCc1nc(Cl)c(C=O)n1CCCOc1cc2c(Nc3cccc(I)c3)ncnc2cc1OC,5.52
9,C#Cc1cccc(Nc2ncnc3cc(OC)c(OCCCn4c(CCCC)nc(Cl)c4CO)cc23)c1,5.00
10,CCc1cc(Br)ccc1Nc1ncnc2cc(OC)c(OCCCSc3nc4ccccc4s3)cc12,5.23
11,CCCCc1nc(Cl)c(C=O)n1CCCOc1cc2c(Nc3cccc(Br)c3)ncnc2cc1OC,5.19
12,CCCCc1nc(Cl)c(C=O)n1CCCOc1cc2c(Nc3cccc(F)c3)ncnc2cc1OC,4.92
13,COc1ccc(Nc2ncnc3cc(OC)c(OCCCSc4nc5ccccc5o4)cc23)cc1,4.88
14,CCCCc1nc(Cl)c(CO)n1CCCOc1cc2c(Nc3cccc(I)c3)ncnc2cc1OC,5.00
15,CCCCc1nc(Cl)c(CO)n1CCCOc1cc2c(Nc3cccc(Br)c3)ncnc2cc1OC,5.09
16,COc1cc2ncnc(Nc3ccc(F)c(Cl)c3)c2cc1OCCCSc1nc2ccccc2s1,5.27
17,CCCCc1nc(Cl)c(CO)n1CCCOc1cc2c(Nc3ccc(OC)cc3)ncnc2cc1OC,4.70
18,COc1cc2ncnc(Nc3ccc(C)cc3)c2cc1OCCCSc1nc2ccccc2o1,4.92
19,CCCCc1nc(Cl)c(CO)n1CCCOc1cc2c(Nc3cccc(F)c3)ncnc2cc1OC,4.75
20,CCCCc1nc(Cl)c(C=O)n1CCCOc1cc2c(Nc3cccc(C(F)(F)F)c3)ncnc2cc1OC,5.45
21,COc1cc2ncnc(Nc3cccc(C(F)(F)F)c3)c2cc1OCCCSc1nc2ccccc2s1,5.39
22,CCCCc1nc(Cl)c(C=O)n1CCCOc1cc2c(Nc3ccc(OC)cc3)ncnc2cc1OC,4.85
23,CCCCc1nc(Cl)c(C=O)n1CCCOc1cc2c(Nc3ccc(F)c(Cl)c3)ncnc2cc1OC,5.30
24,CCCCc1nc(Cl)c(CO)n1CCCOc1cc2c(Nc3cccc(C(F)(F)F)c3)ncnc2cc1OC,5.08
25,CCCCc1nc(Cl)c(CO)n1CCCOc1cc2c(Nc3ccc(F)c(Cl)c3)ncnc2cc1OC,5.22
26,COc1cc2ncnc(Nc3ccc(C)cc3)c2cc1OCCCSc1nc2ccccc2s1,4.85
27,CCCCc1nc(Cl)c(CO)n1CCCOc1cc2c(Nc3ccc(Br)cc3CC)ncnc2cc1OC,4.98

# Tested on: MCF-7 (human)
# Experiment: cells
# Settings: MCF-7, 72 h
row,Compound,pIC50
1,COc1cc2ncnc(Nc3ccc(F)c(Cl)c3)c2cc1OCCCSc1nc2ccccc2o1,4.43
2,COc1cc2ncnc(Nc3cccc(C(F)(F)F)c3)c2cc1OCCCSc1nc2ccccc2o1,4.43
3,CCCCc1nc(Cl)c(C=O)n1CCCOc1cc2c(Nc3cccc(I)c3)ncnc2cc1OC,4.49
4,CCCCc1nc(Cl)c(C=O)n1CCCOc1cc2c(Nc3cccc(C(F)(F)F)c3)ncnc2cc1OC,4.41
5,COc1cc2ncnc(Nc3cccc(C(F)(F)F)c3)c2cc1OCCCSc1nc2ccccc2s1,4.44
